According to PubChem BioAssay (NCI):
Converted amounts (≈) assume the structure as drawn.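 All cell lines were grown in 96-well plates and treated with compound for 48 hours. Here, GI50 denotes the concentration required for 50% inhibition of growth. TGI: concentration producing complete growth inhibition.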

Experiments:
Experiment in all cases: DTP human tumour cell line panel, 48 h
[1] = system: BT-549 breast
[2] = system: COLO 205 colon
[3] = system: EKVX NSCLC
[4] = system: HCC-2998 colon
[5] = system: MDA-MB-435
[6] = system: MDA-N
[7] = system: SF-539 CNS
[8] = system: UACC-62 melanoma
[9] = system: DLD-1 colon
[10] = system: DMS 114 small cell lung
[11] = system: M19-MEL melanoma
[12] = system: SNB-78 CNS

SMILES | TGI [1] | TGI [2] | TGI [3] | TGI [4] | TGI [5] | TGI [6] | TGI [7] | TGI [8] | TGI [9] | TGI [10] | TGI [11] | TGI [12] | GI50 [7] | GI50 [2] | GI50 [3] | GI50 [4] | GI50 [5] | GI50 [8] | GI50 [1] | GI50 [6]
N#Cc1c(Cl)c2cc([N+](=O)[O-])ccc2n2c1nc1ccccc12 | 34.4 µM | 4.67 µM | 34.2 µM | 19.4 µM | 4.65 µM | > 100 µM | 4.28 µM | 35.4 µM | – | – | – | – | – | – | – | – | – | – | – | –
C=C(C)C(=O)OC1CCC2(C)C(CCC3C2CCC2(C)C(c4ccc(=O)oc4)CC4OC432)C1 (centres undefined) | – | 22.8 µM | 11 µM | 17.8 µM | – | – | 27.9 µM | 17.2 µM | 7.38 µM | 9.11 µM | 10.7 µM | 60.7 µM | – | – | – | – | – | – | – | –
COc1cc(/C=C2\CCCC3=C2NC(C)=NC3c2cc(OC)c(OC)c(OC)c2)cc(OC)c1OC (centres undefined) | – | – | – | – | – | – | > 100 µM | – | – | – | – | – | 1.55 µM | – | – | – | – | – | – | –
O=S1(=O)N(CCNc2nccc(-c3c(-c4cccc(O)c4)nc4sccn34)n2)CCN1Cc1ccccc1 | – | 32.3 µM | > 50 µM | 39.8 µM | > 50 µM | – | > 50 µM | 5.29 µM | – | – | – | – | 7.14 µM | 0.621 µM | 26.8 µM | 14.2 µM | 1.23 µM | 0.136 µM | – | –
Cc1nc2ccccc2n1C(=O)c1c(F)c(F)c(F)c(F)c1F | 39.5 µM | 77.9 µM | > 100 µM | 34.2 µM | 20 µM | 33.2 µM | 29.5 µM | 44.1 µM | – | – | – | – | – | – | – | – | – | – | – | –
Cc1cc(O)c(C(C)(C)C)cc1Sc1cc(C(C)(C)C)c(O)cc1C | – | 7.24 µM | 11.6 µM | 5.56 µM | 4.14 µM | – | 9 µM | 3.11 µM | – | – | – | – | 2.77 µM | 2.83 µM | 2.93 µM | 2.45 µM | 1.98 µM | 1.32 µM | – | –
Clc1ccccc1/C=C/c1cscn1 | – | – | > 100 µM | > 100 µM | – | – | > 100 µM | > 100 µM | > 100 µM | > 100 µM | > 100 µM | > 100 µM | – | – | – | – | – | – | – | –
C=CC1(C)CCC2=C(CCC3C(C)(C(=O)OC)CCCC23C)C1=O (centres undefined) | – | 34.6 µM | 32.8 µM | – | – | – | – | 33.7 µM | 36.5 µM | 32.7 µM | 36 µM | 80.1 µM | – | – | – | – | – | – | – | –
O=C(N/N=C\c1cccc(O)c1)c1ccncc1 | > 100 µM | – | > 100 µM | > 100 µM | > 100 µM | > 100 µM | – | > 100 µM | – | – | – | – | – | – | – | – | – | – | – | –
CCOC(=O)C(O)(NC(=O)c1ccc(F)cc1)C(F)(F)F (centres undefined) | > 100 µM | > 100 µM | > 100 µM | > 100 µM | > 100 µM | > 100 µM | > 100 µM | > 100 µM | – | – | – | – | – | – | – | – | – | – | – | –
O=C1NN(C2=NNC3(C(=O)N2)c2ccccc2-c2ccccc23)C(c2ccccc2)=N/C1=C/c1ccc(O)cc1 | > 150 µg/mL | > 150 µg/mL | > 150 µg/mL | – | > 150 µg/mL | > 150 µg/mL | 87.5 µg/mL | 92.2 µg/mL | – | – | – | – | 32.7 µg/mL | > 150 µg/mL | 47.4 µg/mL | – | 69.9 µg/mL | 33.5 µg/mL | > 150 µg/mL | 56.8 µg/mL (≈ 108 µM)
